Experimental data reported in EP4603105A1, “PHARMACEUTICAL COMPOSITION CONTAINING CYCLIC COMPOUND HAVING SELECTIVE KRAS INHIBITORY EFFECT AGAINST HRAS AND NRAS” (CHUGAI SEIYAKU KABUSHIKI KAISHA, priority 2022, dated 2024).
pIC50: −log10 of the molar value. *1 amine or outer side, *2 acyl side, *3 side chain or, on linkers, in order; H or OH if unused. Where a SMILES comes first, the peptide text is derived from it. Bridges are numbered along the chain shown (N, C = ends). [ ]: non-standard residue; d: D form. The star is where a group is joined. hPhe(3-Cl-4-CF3) = N[C@@H](CCc1ccc(C(F)(F)F)c(Cl)c1)C(=O)O; X42 = Cc1ccc(C[C@@H](C(=O)[*:2])N(CCC(F)(F)F)[*:1])cc1; NPrPhe(4-CF3) = CCCN[C@@H](Cc1ccc(C(F)(F)F)cc1)C(=O)O; X37 = Cc1ccc(C[C@@H](C(=O)[*:2])N(CCC(C)C)[*:1])cc1; NMePhe(4-Me) = CN[C@@H](Cc1ccc(C)cc1)C(=O)O; NMeGly(cPent) = CN[C@H](C(=O)O)C1CCCC1; NMeChg = CN[C@H](C(=O)O)C1CCCCC1; NMeD = CN[C@@H](CC(=O)O)C(=O)O; NMeL = CN[C@@H](CC(C)C)C(=O)O; Morpholide = C1CN(*)CCO1; NMeA = CN[C@@H](C)C(=O)O; Piperidide = C1CCN(*)CC1; Ac5c = NC1(C(=O)O)CCCC1; Aze = O=C(O)[C@@H]1CCN1; Ac4c = NC1(C(=O)O)CCC1; Sar = CNCC(=O)O

Columns and labels:
[1] = system: human lung cancer strain NCI-H441; assay type: cell-based
Procedure, shortened: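 Step one: dispense the test compound in serial DMSO dilutions. Step three: add the reagent and measure […].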

[2] = target: GDP-bound NRAS wild-type protein (Homo sapiens, UniProt P01111); assay: Binding to NRAS by surface plasmon resonance (SPR), KD and KD ratio to KRAS
Chain of GDP-bound NRAS wild-type protein (P01111 whole entry): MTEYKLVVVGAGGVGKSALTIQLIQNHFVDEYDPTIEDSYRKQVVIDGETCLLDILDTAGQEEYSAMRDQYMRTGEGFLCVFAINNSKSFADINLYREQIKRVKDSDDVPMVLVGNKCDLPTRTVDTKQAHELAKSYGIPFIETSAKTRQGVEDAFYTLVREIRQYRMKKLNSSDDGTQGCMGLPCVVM
Procedure, shortened: (§1)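 Captured GDP-RAS (~100–300 RU) was exposed to increasing compound concentrations, 75 s per step, in running buffer with 10 µM GDP, 10 mM MgCl2 and 4% DMSO at pH 7.4.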

HRAS wild-type protein = HRAS wild-type protein (Homo sapiens, UniProt P01112); assay: Binding to HRAS by surface plasmon resonance (SPR), KD and KD ratio to KRAS
Chain of HRAS wild-type protein (P01112 whole entry): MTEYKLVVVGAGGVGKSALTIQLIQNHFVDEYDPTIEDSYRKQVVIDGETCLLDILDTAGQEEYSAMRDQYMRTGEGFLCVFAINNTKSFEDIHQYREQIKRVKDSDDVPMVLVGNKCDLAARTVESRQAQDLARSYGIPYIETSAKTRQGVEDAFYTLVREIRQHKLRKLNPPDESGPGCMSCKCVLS
Procedure, shortened: as §1

[3] = ratio of KD for GDP-bound NRAS wild-type protein to KD for KRAS
[4] = ratio of KD for HRAS wild-type protein to KD for KRAS
[5] = ratio of KD value for GDP-bound NRAS wild-type protein to KD value for KRAS (SPR)
[6] = ratio of KD value for HRAS wild-type protein to KD value for KRAS (SPR)
[7] = ratio of the KD value with respect to GDP-bound NRAS wild-type protein to the KD value with respect to KRAS
[8] = ratio of the KD value with respect to HRAS wild-type protein to the KD value with respect to KRAS

Structure (SMILES)	pIC50 [1]	NRAS /KRAS [2, 3]	HRAS /KRAS (HRAS wild-type protein; [4])	NRAS /KRAS [2, 5]	HRAS /KRAS (HRAS wild-type protein; [6])	NRAS /KRAS [2, 7]	HRAS /KRAS (HRAS wild-type protein; [8])
CCC[C@H]1C(=O)N[C@@H]([C@@H](C)CC)C(=O)N(C)CC(=O)N(C)[C@H]2C/C=C\CCN(C2=O)[C@@H](Cc2ccc(C(F)(F)F)cc2)C(=O)N(C)CC(=O)N[C@@H](CCc2cc(F)c(C(F)(F)F)c(F)c2)C(=O)N2CC(F)(F)C[C@H]2C(=O)NC2(CC(C)(C)C2)C(=O)N(C)[C@@H](C2CCCC2)C(=O)N(C)[C@H](C(=O)N(C)C)CC(=O)N1C [PP1711]	8.30			A (a compound having 10 or more and less than 20 is denoted as A)	B (a compound having 3 or more and less than 10 is denoted as B)		
CCO[C@@H]1C[C@H]2C(=O)NC3(CCC3)C(=O)N(C)[C@@H](C(CC)CC)C(=O)N(C)C(C(C)C)CC(=O)N(C)[C@@H](CC3CC3)C(=O)N[C@@H]([C@@H](C)CC)C(=O)N(C)CC(=O)N(C)[C@H]3C/C=C\CCN(C3=O)[C@@H](Cc3ccc(C(F)(F)F)cc3)C(=O)N(C)CC(=O)N[C@@H](CCc3cc(F)c(C(F)(F)F)c(F)c3)C(=O)N2C1 (stereo partly drawn) [PP1595]	7.19			A (a compound having 10 or more and less than 20 is denoted as A)	A (a compound having 10 or more and less than 20 is denoted as A)		
CCO[C@@H]1C[C@H]2C(=O)NC3(CC(C)(C)C3)C(=O)N(C)[C@@H](C3CCCC3)C(=O)N(C)[C@H](C(=O)N3CCCCC3)CC(=O)N(C)[C@@H](CC)C(=O)N[C@@H]([C@@H](C)CC)C(=O)N(C)CC(=O)N(C)[C@H]3C/C=C\CCN(C3=O)[C@@H](Cc3ccc(C(F)(F)F)cc3)C(=O)N(C)CC(=O)N[C@@H](CCc3cc(F)c(C(F)(F)F)c(F)c3)C(=O)N2C1 [PP1945]	7.47					AA (a compound having 20 or more is denoted as AA)	A (a compound having 10 or more and less than 20 is denoted as A)
CCCN1C(=O)CN(C)C(=O)CN(C)C(=O)[C@H]([C@@H](C)CC)NC(=O)[C@H](CC(C)C)N(C)C(=O)C[C@@H](C(=O)N2CCCCC2)N(C)C(=O)[C@H](C2CCCC2)N(C)C(=O)C2(CCC2)NC(=O)[C@@H]2CCCN2C(=O)[C@H](CCc2ccc(C(F)(F)F)c(Cl)c2)NC(=O)CN(C)C(=O)[C@@H]1Cc1ccc(C(F)(F)F)cc1 [PP1930] ([NMeL]I[Sar][Sar][NPrPhe(4-CF3)][Sar][hPhe(3-Cl-4-CF3)]P[Ac4c][NMeGly(cPent)][NMeD]-Piperidide; lactam N-11)	8.15					B (a compound having 3 or more and less than 10 is denoted as B)	C (A compound having a KD ratio of 0.1 or more and less than 3 is denoted as C)
CCO[C@@H]1C[C@H]2C(=O)NC3(CC(C)(C)C3)C(=O)N(C)[C@@H](C3CCCC3)C(=O)N(C)[C@H](C(=O)N3CCCCC3)CC(=O)N(C)[C@H]3CCCCCc4ccc(cc4)C[C@@H](C(=O)N(C)CC(=O)N[C@@H](CCc4ccc(C(F)(F)F)c(OC)c4)C(=O)N2C1)N1CC/C=C\C[C@@H](C1=O)N(C)C(=O)CN(C)C(=O)[C@H]([C@@H](C)CC)NC3=O [PP3036]	8.10	A (a compound having 10 or more and less than 20 is denoted as A)	B (a compound having 3 or more and less than 10 is denoted as B)				
CCO[C@@H]1C[C@H]2C(=O)NC3(CC(C)(C)C3)C(=O)N(C)[C@@H](CC3CCC3)C(=O)N(C)[C@H](C(=O)N(C)C)CC(=O)N(C)[C@@H](COC)C(=O)N[C@@H]([C@@H](C)CC)C(=O)N(C3CC3)CC(=O)N(C)[C@H]3C/C=C\CCN(C3=O)[C@@H](Cc3ccc(C(F)(F)F)cc3)C(=O)N(C)CC(=O)N[C@@H](CCc3cc(F)c(C(F)(F)F)c(F)c3)C(=O)N2C1 [PP2769]	6.88	AA (a compound having 20 or more is denoted as AA)	A (a compound having 10 or more and less than 20 is denoted as A)				
CCCOC[C@H]1C(=O)N[C@@H]([C@@H](C)CC)C(=O)N(C)CC(=O)N(C)[C@H]2C/C=C\CCN(C2=O)[C@@H](Cc2ccc(C(F)(F)F)cc2)C(=O)N(C)CC(=O)N[C@@H](CCc2cc(F)c(C(F)(F)F)c(F)c2)C(=O)N2C[C@H](OCC)C[C@H]2C(=O)NC2(CC(C)(C)C2)C(=O)N(C)[C@@H](C2CCCC2)C(=O)N(C)[C@H](C(=O)N(C)CC)CC(=O)N1C [PP1572]	8.44			A (a compound having 10 or more and less than 20 is denoted as A)	A (a compound having 10 or more and less than 20 is denoted as A)		
CCC[C@H]1C(=O)N[C@@H]([C@@H](C)CC)C(=O)N(C)CC(=O)N(C)[C@H]2C/C=C\CCN(C2=O)[C@@H](CC2CCC(F)(F)CC2)C(=O)N(C)CC(=O)N[C@@H](CCc2ccc(C(F)(F)F)c(OC)c2)C(=O)N2C[C@H](OCC)C[C@H]2C(=O)N(C)C2(CCC2)C(=O)N(C)[C@@H](C2CCCC2)C(=O)N(C)[C@H](C(=O)N(C)C)CC(=O)N1C [PP2348]	7.28					A (a compound having 10 or more and less than 20 is denoted as A)	A (a compound having 10 or more and less than 20 is denoted as A)

Now from value to compound, other results behind:

pIC50 [1]	Structure (SMILES)	NRAS /KRAS [2, 3]	HRAS /KRAS (HRAS wild-type protein; [4])	NRAS /KRAS [2, 5]	HRAS /KRAS (HRAS wild-type protein; [6])	NRAS /KRAS [2, 7]	HRAS /KRAS (HRAS wild-type protein; [8])
8.39	CC[C@H](C)[C@@H]1NC(=O)[C@H](CC(C)C)N(C)C(=O)C[C@@H](C(=O)N2CCOCC2)N(C)C(=O)[C@H](C2CCCC2)N(C)C(=O)C2(CCCC2)NC(=O)[C@@H]2CCCN2C(=O)[C@H](CCc2ccc(C(F)(F)F)c(Cl)c2)NC(=O)CN(C)C(=O)[C@H](Cc2ccc(C)cc2)N(CCC(F)(F)F)C(=O)[C@@H]2CCN2C(=O)[C@H](C)N(C)C1=O [PP0091] ([NMeL]I[NMeA][Aze][X42][Sar][hPhe(3-Cl-4-CF3)]P[Ac5c][NMeGly(cPent)][NMeD]-Morpholide; lactam N-11)	C (A compound having a KD ratio of 0.1 or more and less than 3 is denoted as C)	B (a compound having 3 or more and less than 10 is denoted as B)				
8.20	CC[C@H](C)[C@@H]1NC(=O)[C@H](CC(C)C)N(C)C(=O)C[C@@H](C(=O)N2CCOCC2)N(C)C(=O)[C@H](C2CCCC2)N(C)C(=O)C2(CCCC2)NC(=O)[C@@H]2CCCN2C(=O)[C@H](CCc2ccc(C(F)(F)F)c(Cl)c2)NC(=O)CN(C)C(=O)[C@H](Cc2ccc(C)cc2)N(C)C(=O)[C@@H]2CCN2C(=O)[C@H](C)N(C)C1=O [PP0001] ([NMeL]I[NMeA][Aze][NMePhe(4-Me)][Sar][hPhe(3-Cl-4-CF3)]P[Ac5c][NMeGly(cPent)][NMeD]-Morpholide; lactam N-11)	C (A compound having a KD ratio of 0.1 or more and less than 3 is denoted as C)	C (A compound having a KD ratio of 0.1 or more and less than 3 is denoted as C)				
8.19	CC[C@H](C)[C@@H]1NC(=O)[C@H](CC(C)C)N(C)C(=O)C[C@@H](C(=O)N2CCOCC2)N(C)C(=O)[C@H](C2CCCC2)N(C)C(=O)C2(CCCC2)NC(=O)[C@@H]2CCCN2C(=O)[C@H](CCc2ccc(C(F)(F)F)c(Cl)c2)NC(=O)CN(C)C(=O)[C@H](Cc2ccc(C)cc2)N(CCC(C)C)C(=O)[C@@H]2CCN2C(=O)[C@H](C)N(C)C1=O [PP0086] ([NMeL]I[NMeA][Aze][X37][Sar][hPhe(3-Cl-4-CF3)]P[Ac5c][NMeGly(cPent)][NMeD]-Morpholide; lactam N-11)	C (A compound having a KD ratio of 0.1 or more and less than 3 is denoted as C)	B (a compound having 3 or more and less than 10 is denoted as B)				
7.97	CCCN(C)C(=O)[C@@H]1CC(=O)N(C)[C@@H](COCC)C(=O)N[C@@H]([C@@H](C)CC)C(=O)N(C)CC(=O)N(C)[C@H]2C/C=C\CCN(C2=O)[C@@H](Cc2ccc(C(F)(F)F)cc2)C(=O)N(C)CC(=O)N[C@@H](CCc2ccc(C(F)(F)F)c(OC)c2)C(=O)N2C[C@@H](C)C[C@H]2C(=O)NC2(CC(C)(C)C2)C(=O)N(C)[C@@H](C2CCCC2)C(=O)N1C [PP1991]					A (a compound having 10 or more and less than 20 is denoted as A)	A (a compound having 10 or more and less than 20 is denoted as A)
8.77	CCO[C@@H]1C[C@H]2C(=O)N(C)C3(CCC3)C(=O)N(C)[C@@H](C3CCCC3)C(=O)N(C)[C@H](C(=O)N(C)C)CC(=O)N(C)[C@@H](CC(C)C)C(=O)N[C@@H]([C@@H](C)CC)C(=O)N(C)CC(=O)N(C)[C@H]3C/C=C\CCN(C3=O)[C@@H](Cc3ccc(C)cc3)C(=O)N(C)CC(=O)N[C@@H](CCc3cc(F)c(C(F)(F)F)c(F)c3)C(=O)N2C1 [PP1790]			A (a compound having 10 or more and less than 20 is denoted as A)	B (a compound having 3 or more and less than 10 is denoted as B)		
6.01	CCO[C@@H]1C[C@H]2C(=O)NC3(CCC3)C(=O)N(C)[C@@H](C3CCCC3)C(=O)N(CC)[C@H](C(=O)N3CCOCC3)CC(=O)N(C)[C@@H](CO)C(=O)N[C@@H]([C@@H](C)CC)C(=O)N(C)CC(=O)N(C)[C@H]3CCCCCN(C3=O)[C@@H](Cc3ccc(C(F)(F)F)cc3)C(=O)N(C)CC(=O)N[C@@H](CCc3cc(F)c(C(F)(F)F)c(F)c3)C(=O)N2C1 [PP0945]	B (a compound having 3 or more and less than 10 is denoted as B)	A (a compound having 10 or more and less than 20 is denoted as A)				
7.74	CCCN1C(=O)CN(C)C(=O)CN(C)C(=O)[C@H]([C@@H](C)CC)NC(=O)[C@H](CC(C)C)N(C)C(=O)C[C@@H](C(=O)N2CCOCC2)N(C)C(=O)[C@H](C2CCCCC2)N(C)C(=O)C2(CCC2)NC(=O)[C@@H]2CCCN2C(=O)[C@H](CCc2ccc(C(F)(F)F)c(Cl)c2)NC(=O)CN(C)C(=O)[C@@H]1Cc1ccc(C(F)(F)F)cc1 [PP1928] ([NMeL]I[Sar][Sar][NPrPhe(4-CF3)][Sar][hPhe(3-Cl-4-CF3)]P[Ac4c][NMeChg][NMeD]-Morpholide; lactam N-11)					B (a compound having 3 or more and less than 10 is denoted as B)	B (a compound having 3 or more and less than 10 is denoted as B)
